Experimental data from ChEMBL document CHEMBL1135499, “Further characterization of structural requirements for ligands at the dopamine D(2) and D(3) receptor: exploring the thiophene moiety” (J Med Chem, 2002).

Tests used:
[1] = target: D(2) dopamine receptor (Homo sapiens, UniProt P14416); assay: biochemical
Description: In vitro binding affinity at human Dopamine receptor D2 expressed in CHO K1 cells was measured by its ability to displace [3H]- N-0437

[2] = target: D(3) dopamine receptor (Homo sapiens, UniProt P35462); assay: biochemical
Description: In vitro binding affinity at human Dopamine receptor D3 expressed in CHO K1 cells was measured by its ability to displace [3H]spiperone

[3] = Oral bioavailability in rat; assay type: ADME, organism-based; details: in vivo

Chain of D(2) dopamine receptor (P14416 whole entry): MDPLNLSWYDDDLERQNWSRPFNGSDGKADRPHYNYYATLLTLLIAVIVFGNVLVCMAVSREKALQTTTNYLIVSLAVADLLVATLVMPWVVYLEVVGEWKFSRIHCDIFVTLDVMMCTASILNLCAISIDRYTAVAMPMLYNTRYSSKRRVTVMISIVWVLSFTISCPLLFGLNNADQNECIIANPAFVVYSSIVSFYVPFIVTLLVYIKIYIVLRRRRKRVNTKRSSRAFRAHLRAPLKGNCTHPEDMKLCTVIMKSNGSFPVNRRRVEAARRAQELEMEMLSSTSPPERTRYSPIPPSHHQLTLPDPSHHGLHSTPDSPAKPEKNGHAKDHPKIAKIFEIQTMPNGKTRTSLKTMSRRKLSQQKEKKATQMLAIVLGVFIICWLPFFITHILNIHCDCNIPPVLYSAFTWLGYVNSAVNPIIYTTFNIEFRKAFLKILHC
Chain of D(3) dopamine receptor (P35462 whole entry): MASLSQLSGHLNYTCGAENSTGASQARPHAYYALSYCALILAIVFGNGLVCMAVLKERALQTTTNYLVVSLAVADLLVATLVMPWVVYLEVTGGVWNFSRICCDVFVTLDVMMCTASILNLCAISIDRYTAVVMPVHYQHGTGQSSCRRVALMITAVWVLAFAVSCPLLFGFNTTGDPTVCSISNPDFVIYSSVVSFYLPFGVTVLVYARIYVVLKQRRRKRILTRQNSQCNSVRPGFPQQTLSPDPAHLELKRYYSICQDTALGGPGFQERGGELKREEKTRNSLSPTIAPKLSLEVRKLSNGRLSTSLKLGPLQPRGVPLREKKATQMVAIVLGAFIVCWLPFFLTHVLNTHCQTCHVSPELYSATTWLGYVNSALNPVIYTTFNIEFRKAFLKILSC

Structure (SMILES)	Ki [1]	Ki [2]	bioavailability [3]
CCCN1CCOC2c3ccsc3CCC21 (stereo unspecified)	630 nM	240 nM	
CCCN(CCC)C1CCc2ccsc2C1 (stereo unspecified)	27 nM	28 nM	10%
CCCN(CCc1ccsc1)CCc1ccsc1	439 nM	108 nM	
CCCN(CCC)CC1CCc2sccc2C1 (stereo unspecified)	2040 nM	247 nM	
CCCN(CCc1ccsc1)CCc1cccs1	1080 nM	117 nM	
Oc1ccc2c(c1)C1OCCN(CCc3cccs3)C1CC2 (racemic)	3680 nM	83 nM	
c1cc2c(s1)CCC1NCCOC21 (stereo unspecified)	> 4780 nM	3000 nM	
CCCN1CC(c2ccccc2)OC2c3cc(O)ccc3CCC21 (racemic)	375 nM	12 nM	
CCCN(CCC)[C@@H]1Cc2cccc(O)c2C[C@H]1C	14 nM	0.54 nM	
CCCN(CCC)C1CCc2sccc2C1 (stereo unspecified)	20 nM	40 nM	> 10%
CCCN(CCC)CC1CCc2ccsc2C1 (stereo unspecified)	3110 nM	60 nM	
Oc1ccc2c(c1)C1OCCN(CCc3ccccc3)C1CC2 (racemic)	> 3680 nM	1570 nM	
